Patent US4591559A, “Antibiotic X-14934A and a method for its preparation” (Hoffmann-La Roche Inc., priority 1985, dated 1986)

Tested on: E. Tenella
Assay: Anti-coccidial activity against E. Tenella in chickens
Type: in vivo
Details: 75 PPM in feed
Method: This test utilizes ten chickens per drug group. Ten chickens are employed as a weight control and ten chickens as an infected control. The drug is given 48 hours in advance of the infection. One gm. of the test drug is mixed in a mechanical mixer with a sufficient amount of chicken feed to result in the desired dosage. The infection consists of approximately 200,000 oocysts given orally by pipette. The tests lasts for eleven days and the surviving bids are autopsied and examined for gross lesions in the ceca. The test bids are rated according to the number of survivors and the number of cecal lesions. The results are expressed as average degree of infection (A.D.I.). An average degree of infection of less than 2.5 is considered to be significant.

CC[C@@H](C(=O)[C@@H](C)[C@@H](O)[C@H](C)CCc1ccc(C)c(O)c1C(=O)O)[C@H]1O[C@](CC)([C@H]2CC[C@](O)(CC)[C@H](C)O2)C[C@@H]1C [Lasalocid]
Mort. %: 0% | Weight Gain %: 98% | Ave. Degree Infect. (<2.5 considered significant): 0.0
